EP2036556A1, “Piperidone derivatives and medical uses thereof” (Heinrich-Pette-Institut, priority 2007, dated 2009)

Key:
[1] = tested on: T. brucei brucei laboratory strain TC 221; experiment: Trypanosome assay (in vitro cytotoxicity, Alamar Blue); format: cell-based, Trypanosoma brucei brucei; details: for EC50: Trypanosoma brucei, strain TC 221, 10^4 trypanosomes per mL, incubated 72 h, reading at 48 h, Alamar Blue, read-out: ED50 [µM] T. brucei brucei
Description: Parasite culture: Trypomastigote forms of T. brucei brucei laboratory strain TC 221 were cultured in Baltz medium according to standard conditions.^36 In vitro cytotoxicity assays: The test compounds were dissolved in DMSO or 0.1 M NaOH. A defined number of parasites (10^4 trypanosomes per mL) were exposed in test chambers of 96-well plates to various concentrations of the test substances in a final volume of 200 µl. Positive (trypanosomes in culture medium) and negative controls (test substance without trypanosomes) were run with each plate. The plates were then incubated at 37°C in an atmosphere of 5 % CO2 for a total time period of 72 h. […] The effect of test substances was quantified in ED50 values by linear interpolation^18 of three different measurements. The activity of the test substances was measured by light absorption in an MR 700 Microplate Reader at a wavelength of 550 nm with a reference wave length of 630 nm, using the Alamar Blue®.

[2] = tested on: macrophage cell line J774.1; experiment: Macrophage assay (Alamar Blue cytotoxicity); format: cell-based; details: Mus musculus; J774.1 macrophages; after 48h; read-out: ED50 [µM] Macrophage after 48h
Description: The macrophage cell line J774.1 was maintained in complete Click RPMI medium. For the experimental procedures cells were detached from the flasks with a rubber police, washed twice with PBS and suspended at 2 x 10^6 cells mL^-1 in complete Click RPMI medium. […] Following the addition of 20 µl of Alamar Blue, the plates were further incubated at similar conditions. The plates were then read 24 and 48 h later. Control experiments to examine the effect of cell density, incubation time and DMSO concentration were performed. Absorbance in the absence of compounds was set as 100 % of growth control.

HTLV-I = experiment: Inhibition of HTLV-I virus production in MT-2 cells (real-time PCR of gag RNA in supernatant); format: cell-based; details: Primate T-lymphotropic virus 1, MT2, 240 h, day 10 and 14, read-out: inhibition of virus production in relation to the solvent control
Description: For the investigation wether the inhibition of DOHH by the compositions of the invention can influence replication of HTLV-I, the lymphoma cell line MT-2, which is latently infected by HTLV-I was used as a model system (Harada et al., 1985, Infection of HTLV-III/LAV in HTLV-I-carrying cells MT-2 and MT-4 and application in a plaque assay. Science 229, 563-566). MT-2 cells continually produce a high amount of virus particles which are secreted into the cell culture supernatant, and they grow quickly. The experimental approach is based on the comparison of the virus load of cells treated with the potential inhibitor and an untreated control. As the inhibitor was dissolved in DMSO, the same amount of this solvent was added to the control cells.
For investigating the influence of inhibition of DOOH on the replication of HTLV-I, as before, MT-2 cells were cultivated with the determined subtoxic concentrations of compound 11 as well as a solvent control. In regular intervals, cell vitality was determined and the RNA of the virus particles from the supernatant was isolated. After reverse transcription with a primer specific for the gag region of HTLV-I RNA, the cDNA was quantified by real-time PCR. For detection of the amplified DNA, a gag-specific probe was used. A plasmid comprising the HTLV-I provirus served as a standard. […]

MT-2 cells = format: cell-based; details: human, 10 days, 10 µM
Description: First, the subtoxic concentration of the inhibitor was determined by vitality assays. MT-2 cells were cultured for 14 days with 10, 5, 2.5 and 1.5 µM of the inhibitor as well as DMSO as a solvent control. In regular intervals, samples for determination of the vitality of the cells were taken. Vitality was tested with the alamarBlue®-Assays.

[3] = tested on: X4-tropic HIV-1 strain NL4/3; experiment: HIV-1 infection experiments in PM1 cells, p24 antigen ELISA, strain NL4/3; format: cell-based; details: concentration of 6 µM, compared to DMSO control cultures
Description: (§1) HIV-1 infection experiments using the T-cell tropic (X4) strain NL4/3, the macrophage-tropic (R5) strain BaL were routinely performed using PM1 cells (virus laboratory strains and cells were obtained from the NIH AIDS Research and Reference Reagent Program). Cells were cultured in RPMI medium containing 10 % fetal calf serum (Pansystems GmbH) and antibiotics (penicillin and streptomycin). For HIV-1 infection, 5 x 10^7 cells were resuspended in 500 µl culture medium without drugs and incubated at 37 °C for 3 h with 100 ng of HIV-1 viral stocks. After infection, cells were washed twice with PBS without Ca^2+ and Mg^2+ to avoid false positive p24 antigen determination. Cells were resuspended and identical aliquots (5 x 10^5 / mL) of infected cells were further cultured in 24-well plates (triplicates) in the presence of the drugs (dissolved in DMSO) at various concentrations, or in medium with DMSO as control for the calculation of the inhibition of virus replication. Culture medium was changed and cells were splitted twice a week post-infection. Viability of the cells (as measured by Alamar Blue) and p24 antigen levels (as measured by ELISA; Innogenetics N.V.) were determined at different time points.

[4] = tested on: R5-tropic HIV-1 strain BaL; experiment: HIV-1 infection experiments in PM1 cells, p24 antigen ELISA, strain BaL; format: cell-based
Description: as §1

HIV-1 = HIV-1 infection experiments in PM1 cells, strain not specified (BaL and/or NL4/3); format: cell-based; details: strain and concentration not given
Description: as §1

plasmodia = details: after 48 h; previous study; cited from earlier work

C=CCN1[C@@H](c2ccc([N+](=O)[O-])cc2)C(C(=O)OCC)=C(O)C(C(=O)OCC)[C@@H]1c1ccc([N+](=O)[O-])cc1 (stereo partly drawn) [Compound 11, Diethyl (2R,6S)-1-allyl-4-hydroxy-2,6-bis(4-nitrophenyl)-1,2,3,6-tetrahydropyridine-3,5-dicarboxylate]
EC50 [1]: 3.06 ± 0.55 µM
EC50 [2]: > 100 µM
inhibition at 2.5 µM (HTLV-I; 2.5 µM): > 90%
inhibition at 5 µM (HTLV-I; 5 µM): > 80%
death of the cells (MT-2 cells): 90%
inhibition of replication of HIV-1 NL4/3 [3]: completely inhibit
inhibition of replication of HIV-1 BaL ([4]; PM1 cells, concentration of 5 µM, compared to DMSO control cultures): completely inhibit

COC(=O)C1=C(O)C(C(=O)OC)[C@H](c2ccc([N+](=O)[O-])cc2)N(Cc2ccccc2)[C@H]1c1ccc([N+](=O)[O-])cc1 (stereo partly drawn) [Compound 12, Dimethyl (2R,6S)-1-benzyl-4-hydroxy-2,6-bis(4-nitrophenyl)-1,2,3,6-tetrahydropyridine-3,5-dicarboxylate]
inhibition of virus replication (HIV-1): 20%
EC50 [1]: 3.01 ± 0.27 µM
EC50 [2]: 18.4 ± 2.93 µM

CCOC(=O)C1=C(O)C(C(=O)OCC)[C@H](c2ccc([N+](=O)[O-])cc2)N(Cc2ccccc2)[C@H]1c1ccc([N+](=O)[O-])cc1 (stereo partly drawn) [Compound 13, Diethyl (2R,6S)-1-benzyl-4-hydroxy-2,6-bis(4-nitrophenyl)-1,2,3,6-tetrahydropyridine-3,5-dicarboxylate]
inhibition of virus replication (HIV-1): 20%
EC50 [1]: 2.72 ± 0.51 µM
EC50 [2]: > 100 µM

COC(=O)C1=C(O)C[C@@H](c2ccccn2)N(Cc2ccc(Cl)cc2)[C@H]1c1ccccn1 [Compound 21, Methyl (2'R,6'S)-1'-(4-chlorobenzyl)-4'-hydroxy-1',2',5',6'-tetrahydro-2,2';6',2''-terpyridine-3'-carboxylate]
EC50 [1]: 0.32 ± 0.09 µM
activity against the plasmodia (plasmodia): high activity
EC50 [2]: 32.8 ± 0.49 µM

C=CCN1[C@@H](c2ccccn2)C(C(=O)OC)=C(O)C[C@H]1c1ccccn1 [Compound 24, Methyl (2'R,6'S)-1'-allyl-4'-hydroxy-1',2',5',6'-tetrahydro-2,2';6',2''-terpyridine-3'-carboxylate]
EC50 [1]: 1.08 ± 0.48 µM
activity against the plasmodia (plasmodia): high activity
EC50 [2]: 35 µM

Cl.Clc1cccc(Cl)c1CON=CC1CCN(CCCc2ccccc2)CC1 [Compound 53, 4-[(2,6-Dichloro-benzyloxyimino)-methyl]-1-(3-phenyl-propyl)-piperidinium hydrochloride]
EC50 [1]: 3.86 ± 1.95 µM
activity against trypanosomes (in words) ([1]; statement of the discussion): active against trypanosomes
EC50 [2]: 28.4 ± 5.92 µM
inhibition at 10 µM ([4]; Human immunodeficiency virus 1, HIV-1 BaL infected PM1 cells, concentration of 10 µM, read-out: virus replication inhibited): 85%
